Experimental data as given in US20110195845A1, “Constructs for Expressing Herbicide Tolerance Genes, Related Plants, and Related Trait Combinations” (Dow AgroSciences LLC, priority 2008, published 2011).

Assays:
E. coli BL21-Star (DE3) = assay: Bacterial strain response to glufosinate on minimal media; format: cell-based, Escherichia coli; design: key to bacterial growth on minimal media: +++ = Heavy Lawn Growth; ++ = Light lawn growth; + = patchy lawn growth; −− = No Growth; conditions: for bacterial growth on minimal media: 24 hrs @ 37 C
Method: (§1) Selected cell lines of Escherichia coli and Agrobacterium tumefaciens were inoculated on minimal media containing incrementally increasing concentrations of Glufosinate (BASTA). The cell lines; BL21-Star (DE3), Top10, DH5α, Agrobacterium tumefaciens C58, and Agrobacterium tumefaciens LBA4404s were initially grown up on complex media. The Escherichia coli strains were grown in LB and the Agrobacterium tumefaciens strains were grown in YEP. Five microliters of bacterial culture was inoculated and dispersed evenly onto minimal media plates containing various concentrations of glufosinate. The concentrations consisted of 0 μg/ml, 250 μg/ml, 500 μg/ml, 1000 μg/ml, 2000 μg/ml, and 4000 μg/ml of BASTA. In addition, the bacterial strains were inoculated onto a plate of complex media as a control—Agrobacterium tumefaciens strains were inoculated on YEP agar plates, and Escherichia coli strains were inoculated on LB agar plates. The plates containing the Escherichia coli strains were incubated at 37° C. for 24 hours. The plates containing the Agrobacterium tumefaciens strains were incubate at 25° C. for 48 hours. […] Table 7 illustrates the capability of the various strains to grow on minimal media containing glufosinate.

E. coli DH5α = assay: as above; format: cell-based, Escherichia coli; design: key: +++ = Heavy Lawn Growth; ++ = Light lawn growth; + = patchy lawn growth; −− = No Growth; conditions: 24 hrs @ 37 C
Method: as §1

E. coli Top10 = assay: as above; format: cell-based, Escherichia coli; design: key: +++ = Heavy Lawn Growth; ++ = Light lawn growth; + = patchy lawn growth; −− = No Growth; conditions: 24 hrs @ 37 C
Method: as §1

[1] = system: Escherichia coli BL21-Star (DE3) with AtUbi10 promoter//PAT (3779); assay: Plant promoter driven complementation on glufosinate, plasmid 3779; format: cell-based; design: key: ++++ = Heavy Lawn Growth; +++ = Lawn Growth; ++ = Lots of Distinct Colonies; + = Scattered Colony Growth; conditions: 48 hrs @37 C
Method: Plasmid constructs in which the DSM-2 (v2) and PAT gene coding sequences were expressed, under either the viral promoters CsVMV or the plant promoter AtUbi10, were assayed for complementation on minimal media containing glufosinate. The plasmids 3778 (Rb7 MARv3//AtUbi10 promoter//DSM-2 (v2)//Atu Orf 1 3′UTR), 3779 (Rb7 MARv3//AtUbi10 promoter//PAT//Atu Orf 1 3′UTR), 3264 (CsVMV promoter//DSM-2//Atu Orf 24 3′UTR), 3037 (CsVMV promoter//PAT//Atu Orf 25/26 3′UTR), and 770 (control plasmid containing CsVMV promoter//GUS v3//Atu Orf 24 3′UTR) were transformed into Escherichia coli BL21-Star (DE3) and grown up in complex media. Five microliters of the cultures were plated on minimal media containing increasing concentrations of Glufosinate and incubated at 37° C. for 48 hours.

[2] = system: WT corn (5× H751× Hi II control plants); assay: Corn response to glufosinate applied postemergence; format: in vivo; conditions: 14DAT
Text: The seed from the cross of T1 DSM-2 (v2)×5× H751 were planted into 4-inch pots containing Metro Mix media and at 2 leaf stage were sprayed in the track sprayer set to 187 L/ha at 560 g ai/ha glufosinate to remove nulls. At 7 DAT nulls were removed and resistant plants were sprayed in the track sprayer as above at the following rates: 0, 560, 1120, 2240, and 4480 g ai/ha glufosinate. Plants were graded at 3 and 14 DAT and compared to 5× H751× Hi II control plants.

[3] = 560 g ai/ha glufosinate postemergence
[4] = 1120 g ai/ha glufosinate postemergence
[5] = 2240 g ai/ha glufosinate postemergence
[6] = 4480 g ai/ha glufosinate postemergence

Structure (SMILES): CP(=O)(O)CCC(N)C(=O)O (centres unmarked) [glufosinate]
- bacterial growth on minimal media (E. coli BL21-Star (DE3); 250 μg/ml BASTA): −−
- bacterial growth on minimal media (E. coli BL21-Star (DE3); 500 μg/ml BASTA): −−
- bacterial growth on minimal media (E. coli BL21-Star (DE3); 1000 μg/ml BASTA): −−
- bacterial growth on minimal media (E. coli BL21-Star (DE3); 2000 μg/ml BASTA): −−
- bacterial growth on minimal media (E. coli BL21-Star (DE3); 4000 μg/ml BASTA): −−
- concentration in minimal media at which the cell line was inhibited (E. coli BL21-Star (DE3); minimal media): 100 µg/mL
- inhibition of strain by glufosinate (E. coli BL21-Star (DE3); minimal media, 250-4000 μg/ml BASTA): substantially inhibited
- bacterial growth on minimal media (E. coli DH5α; 250 μg/ml BASTA): +++
- bacterial growth on minimal media (E. coli DH5α; 500 μg/ml BASTA): +++
- bacterial growth on minimal media (E. coli DH5α; 1000 μg/ml BASTA): +++
- bacterial growth on minimal media (E. coli DH5α; 2000 μg/ml BASTA): +++
- bacterial growth on minimal media (E. coli DH5α; 4000 μg/ml BASTA): −−
- bacterial growth on minimal media (E. coli Top10; 250 μg/ml BASTA): +++
- bacterial growth on minimal media (E. coli Top10; 500 μg/ml BASTA): +++
- bacterial growth on minimal media (E. coli Top10; 1000 μg/ml BASTA): +++
- bacterial growth on minimal media (E. coli Top10; 2000 μg/ml BASTA): +
- bacterial growth on minimal media (E. coli Top10; 4000 μg/ml BASTA): −−
- bacterial growth on minimal media ([1]; 250 μg/ml BASTA): ++++
- bacterial growth on minimal media ([1]; 500 μg/ml BASTA): +++
- bacterial growth on minimal media ([1]; 1000 μg/ml BASTA): +++
- bacterial growth on minimal media ([1]; 2000 μg/ml BASTA): +++
- bacterial growth on minimal media ([1]; 4000 μg/ml BASTA): +++
- % Injury Ave [2, 3]: 100%
- individuals with % Injury 20-40% [2, 3]: 0
- individuals with % Injury <20% [2, 3]: 0
- individuals with % Injury >40% [2, 3]: 4
- % Injury Ave [2, 4]: 100%
- individuals with % Injury 20-40% [2, 4]: 0
- individuals with % Injury <20% [2, 4]: 0
- individuals with % Injury >40% [2, 4]: 4
- % Injury Ave [2, 5]: 100%
- individuals with % Injury 20-40% [2, 5]: 0
- individuals with % Injury <20% [2, 5]: 0
- individuals with % Injury >40% [2, 5]: 4
- % Injury Ave [2, 6]: 100%
- individuals with % Injury 20-40% [2, 6]: 0
- individuals with % Injury <20% [2, 6]: 0
- individuals with % Injury >40% [2, 6]: 4
